Results taken from US9045482B2, “Pyrido[4,3-B]indoles and methods of use” (Medivation Technologies, Inc., priority 2009, dated 2015).

Columns and labels:
[1] = target: T1, human recombinant serotonin (5-Hydroxytryptamine) 5-HT2A receptor (Homo sapiens, UniProt P28223); experiment: Serotonin 5-HT2A radioligand binding ([3H]Ketanserin)
T1 construct: expressed in transfected cells; host or cells: Chinese hamster ovary (CHO-K1) cells
Description: (1997), 68:1998] in a 50 mM Tris-HCl buffer, pH 7.4, was used. Compounds of the invention were incubated with 0.5 nM [^3H]Ketanserin for 60 min at 25° C. Non-specific binding was estimated in the presence of 1 μM Mianserin. Receptor proteins were filtered and washed, the filters were then counted to determine [^3H]Ketanserin specifically bound. Compounds were screened at 1 μM or lower, using 1% DMSO as vehicle. Biochemical assay results are presented as the percent inhibition of specific binding in Table 4.

[2] = target: human recombinant dopamine D2L receptor (Homo sapiens, UniProt P14416); experiment: Dopamine D2L radioligand binding ([3H]Spiperone)
Description: To evaluate in radioligand binding assays the activity of compounds of the invention, human recombinant dopamine D2L receptor expressed in Chinese hamster ovary (CHO) cells [Grandy, D. K. et al., Proc. Natl. Acad. Sci. USA. (1989), 86:9762; Hayes, G. et al., Mol. Endocrinol. […] Compounds of the invention were incubated with 0.16 nM [^3H]Spiperone for 120 min at 25° C. Non-specific binding was estimated in the presence of 10 μM Haloperidol. Receptor proteins were filtered and washed, the filters were then counted to determine [^3H]Spiperone specifically bound. Compounds were screened at 1 μM or lower, using 1% DMSO as vehicle. Biochemical assay results are presented as the percent inhibition of specific binding in Table 3.

[3] = target: T2, rat adrenergic α1A receptor (Rattus norvegicus, UniProt P43140); experiment: Adrenergic α1A radioligand binding ([3H]Prozosin); parameters: species or system Wistar Rat; conditions: 0.1 μM ligand conc.
T2 construct: rat adrenergic α1A receptor obtained from Wistar Rat submaxillary glands; from tissue; host or cells: Wistar Rat submaxillary glands
T2 sequence (P43140 1-466): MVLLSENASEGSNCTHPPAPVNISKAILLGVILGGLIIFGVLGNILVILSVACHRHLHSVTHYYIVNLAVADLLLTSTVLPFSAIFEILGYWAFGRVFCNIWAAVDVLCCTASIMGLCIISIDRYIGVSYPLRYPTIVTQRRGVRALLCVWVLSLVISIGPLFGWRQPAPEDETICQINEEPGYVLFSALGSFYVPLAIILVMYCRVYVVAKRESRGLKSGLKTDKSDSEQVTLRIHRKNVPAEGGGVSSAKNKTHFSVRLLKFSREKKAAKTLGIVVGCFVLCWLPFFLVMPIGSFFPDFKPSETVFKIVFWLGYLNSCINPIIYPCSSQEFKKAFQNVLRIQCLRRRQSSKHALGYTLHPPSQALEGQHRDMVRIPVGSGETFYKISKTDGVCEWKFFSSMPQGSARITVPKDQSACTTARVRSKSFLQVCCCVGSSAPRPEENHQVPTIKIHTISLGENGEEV
Description: To evaluate in radioligand binding assays the activity of compounds of the invention, rat adrenergic α1A receptor obtained from Wistar Rat submaxillary glands [Michel, A. D. et al., Br. J. Pharmacol. (1989), 98:883] in a modified Tris-HCl buffer (50 mM Tris-HCl buffer, pH 7.4, 0.5 mM EDTA) was used. Compounds of the invention were incubated with 0.25 nM [^3H]Prozosin for 60 min at 25° C. Non-specific binding was estimated in the presence of 10 μM phentolamine. Receptor proteins were filtered and washed, the filters were then counted to determine [^3H]Prozosin specifically bound. Compounds of the invention were screened at 1 μM or lower, using 1% DMSO as vehicle. Compounds of the invention were tested in this biochemical assay. Biochemical assay results for representative compounds were presented as the percent inhibition of specific binding in Table 3.

[4] = target: T3, human recombinant serotonin (5-Hydroxytryptamine) 5-HT5A receptor (Homo sapiens, UniProt P47898); experiment: Serotonin 5-HT5A radioligand binding ([3H]LSD); conditions: 0.1 μM ligand concentration
T3 construct: expressed in transfected cells; host or cells: Chinese hamster ovary (CHO-K1) cells
Description: Compounds of the invention were incubated with 1.7 nM [^3H]Lysergic acid diethylamide (LSD) for 60 min at 37° C. […] Receptor proteins were filtered and washed, the filters were then counted to determine [^3H]LSD specifically bound. Compounds were screened at 1 μM or lower, using 1% DMSO as vehicle. Biochemical assay results are presented as the percent inhibition of specific binding in Table 4.

[5] = target: T4, human recombinant serotonin (5-Hydroxytryptamine) 5-HT2C receptor (Homo sapiens, UniProt P28335); experiment: Serotonin 5-HT2C radioligand binding ([3H]Mesulergine)
T4 construct: expressed in transfected cells; host or cells: Chinese hamster ovary (CHO-K1) cells
T4 sequence (P28335 33-458): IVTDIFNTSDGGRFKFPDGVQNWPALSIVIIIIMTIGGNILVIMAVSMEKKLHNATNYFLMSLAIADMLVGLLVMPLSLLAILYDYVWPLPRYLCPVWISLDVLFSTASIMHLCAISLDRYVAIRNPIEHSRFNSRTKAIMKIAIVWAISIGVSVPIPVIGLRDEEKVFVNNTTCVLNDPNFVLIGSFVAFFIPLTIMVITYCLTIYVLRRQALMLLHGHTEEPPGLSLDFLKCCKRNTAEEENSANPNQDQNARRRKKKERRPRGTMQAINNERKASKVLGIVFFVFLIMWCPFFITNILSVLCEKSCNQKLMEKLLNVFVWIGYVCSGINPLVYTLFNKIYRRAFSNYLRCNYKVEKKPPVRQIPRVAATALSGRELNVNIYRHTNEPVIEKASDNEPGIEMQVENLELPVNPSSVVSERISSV
Description: (1997), 69:1449] in a modified Tris-HCl buffer (50 mM Tris-HCl, pH 7.4, 0.1% Ascorbic Acid, 10 μM Pargyline) was used. Compounds of the invention were incubated with 1 nM [^3H]Mesulergine for 60 min at 25° C. Non-specific binding was estimated in the presence of 1 μM Mianserin. Receptor proteins were filtered and washed, the filters were then counted to determine [^3H]Mesulergine specifically bound. Compounds were screened at 1 μM or lower, using 1% DMSO as vehicle. Biochemical assay results are presented as the percent inhibition of specific binding in Table 4.

[6] = target: T5, human recombinant serotonin (5-Hydroxytryptamine) 5-HT6 receptor (Homo sapiens, UniProt P50406); experiment: Serotonin 5-HT6 radioligand binding ([3H]LSD)
T5 construct: expressed in transfected cells; host or cells: human HeLa cells
Description: Compounds of the invention were incubated with 1.5 nM [3H]Lysergic acid diethylamide (LSD) for 120 min at 37° C. […] Receptor proteins were filtered and washed, the filters were then counted to determine [3H]LSD specifically bound. Compounds were screened at 1 μM or lower, using 1% DMSO as vehicle. Biochemical assay results are presented as the percent inhibition of specific binding in Table 4.

T1 sequence (P28223 whole entry): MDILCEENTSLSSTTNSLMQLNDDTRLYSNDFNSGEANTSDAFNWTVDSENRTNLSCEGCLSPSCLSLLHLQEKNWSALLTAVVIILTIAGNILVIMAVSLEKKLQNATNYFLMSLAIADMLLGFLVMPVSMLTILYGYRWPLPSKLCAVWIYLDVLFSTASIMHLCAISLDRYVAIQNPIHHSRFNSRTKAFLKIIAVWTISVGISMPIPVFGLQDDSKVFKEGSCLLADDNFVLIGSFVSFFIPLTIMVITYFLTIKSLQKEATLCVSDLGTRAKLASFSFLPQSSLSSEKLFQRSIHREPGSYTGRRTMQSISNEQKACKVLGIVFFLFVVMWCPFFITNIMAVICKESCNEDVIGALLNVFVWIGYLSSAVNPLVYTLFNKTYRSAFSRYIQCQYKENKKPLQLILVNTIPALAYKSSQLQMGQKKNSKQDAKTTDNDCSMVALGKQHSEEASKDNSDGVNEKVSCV
T3 sequence (P47898 whole entry): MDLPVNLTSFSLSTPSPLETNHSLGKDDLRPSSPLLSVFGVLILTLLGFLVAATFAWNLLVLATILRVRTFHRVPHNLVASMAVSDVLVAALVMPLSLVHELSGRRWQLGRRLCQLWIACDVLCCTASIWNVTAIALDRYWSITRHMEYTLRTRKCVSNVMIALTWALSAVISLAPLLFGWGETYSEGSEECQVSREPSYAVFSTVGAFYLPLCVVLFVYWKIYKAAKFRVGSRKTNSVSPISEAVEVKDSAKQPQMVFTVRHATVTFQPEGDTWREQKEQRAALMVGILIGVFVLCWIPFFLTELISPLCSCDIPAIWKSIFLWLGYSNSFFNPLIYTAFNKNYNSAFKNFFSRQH
human recombinant dopamine D2L receptor, sequence (P14416 whole entry): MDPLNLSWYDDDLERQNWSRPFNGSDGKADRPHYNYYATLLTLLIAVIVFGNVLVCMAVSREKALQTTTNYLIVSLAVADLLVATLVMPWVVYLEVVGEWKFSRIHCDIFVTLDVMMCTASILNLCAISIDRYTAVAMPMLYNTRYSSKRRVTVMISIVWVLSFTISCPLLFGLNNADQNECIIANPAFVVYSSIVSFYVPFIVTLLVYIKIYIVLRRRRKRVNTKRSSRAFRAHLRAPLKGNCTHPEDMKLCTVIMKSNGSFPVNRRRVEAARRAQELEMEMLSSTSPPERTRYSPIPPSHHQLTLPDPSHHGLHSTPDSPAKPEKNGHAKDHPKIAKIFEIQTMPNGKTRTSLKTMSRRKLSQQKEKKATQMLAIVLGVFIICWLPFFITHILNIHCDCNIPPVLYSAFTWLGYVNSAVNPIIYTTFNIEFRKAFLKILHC
T5 sequence (P50406 whole entry): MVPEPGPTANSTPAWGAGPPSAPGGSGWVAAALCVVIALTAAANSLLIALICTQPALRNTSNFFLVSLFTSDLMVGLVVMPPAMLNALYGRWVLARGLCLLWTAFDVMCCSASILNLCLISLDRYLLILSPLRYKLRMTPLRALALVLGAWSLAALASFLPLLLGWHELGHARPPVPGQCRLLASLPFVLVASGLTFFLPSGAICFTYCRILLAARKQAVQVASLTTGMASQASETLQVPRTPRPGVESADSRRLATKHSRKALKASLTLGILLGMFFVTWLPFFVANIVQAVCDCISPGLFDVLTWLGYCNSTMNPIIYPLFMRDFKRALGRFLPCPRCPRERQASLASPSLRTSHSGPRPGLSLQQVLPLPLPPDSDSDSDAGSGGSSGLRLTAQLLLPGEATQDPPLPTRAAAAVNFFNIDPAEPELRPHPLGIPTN

Row | SMILES | Percent Inhibition of ligand binding Serotonin 5-HT2A ([1]; 0.1 μM ligand concentration) [%] | Percent Inhibition of ligand binding Dopamine D2L ([2]; 0.1 μM ligand conc.) [%] | Percent Inhibition of ligand binding Adrenergic α1A [3] [%] | Percent Inhibition of ligand binding Serotonin 5-HT5A [4] [%] | Percent Inhibition of ligand binding Serotonin 5-HT2C ([5]; 0.1 μM ligand concentration) [%] | Percent Inhibition of ligand binding Serotonin 5-HT6 ([6]; 0.1 μM ligand concentration) [%] | Percent Inhibition of ligand binding Serotonin 5-HT2A ([1]; 1 μM ligand concentration) [%] | Percent Inhibition of ligand binding Dopamine D2L ([2]; 1 μM ligand conc.) [%] | Percent Inhibition of ligand binding Serotonin 5-HT2C ([5]; 1 μM ligand concentration) [%] | Percent Inhibition of ligand binding Serotonin 5-HT6 ([6]; 1 μM ligand concentration) [%]
1 | Cc1cnc2c(c1)c1c(n2CCc2ccc(C)nc2)CCN2CCCC12 (centres unmarked) [Compound 33, 10-methyl-7-(2-(6-methylpyridin-3-yl)ethyl)-2,3,5,6,7,1c-hexahydro-1H-pyrido[3′,2′:4,5]pyrrolo[2,3-g]indolizine] | 29 | 1 | 26 | 0 | 13 | 20 |  |  |  | 
2 | O=C(Cn1c2c(c3cccnc31)CN1CCCC1C2)N1CCCCC1 (centres unmarked) [Compound 37, 1-(piperidin-1-yl)-2-(8,9,9a,10-tetrahydro-5H-pyrido[3′,2′:4,5]pyrrolo[3,2-f]indolizin-11(7H)-yl)ethanone] | 33 | −5 | −6 | 8 | 9 | −9 |  |  |  | 
3 | Fc1ccc(CCn2c3c(c4cc(Cl)ccc42)C2CCCN2CC3)cc1 (centres unmarked) [Compound 1, 7-(4-fluorophenethyl)-10-chloro-2,3,5,6,7,11c-hexahydro-1H-indolizino[7,8-b]indole] |  |  |  |  |  |  | 11 | 9 | 44 | 19
4 | Fc1ccc(CCn2c3c(c4cc(Cl)ccc42)CN2CCCC2C3)cc1 (centres unmarked) [Compound 2, 10-(4-fluorophenethyl)-7-chloro-2,3,5,10,11,11a-hexahydro-1H-indolizino[7,6-b]indole] |  |  |  |  |  |  | 41 | 13 | 53 | 19
5 | Cc1ccc(CCn2c3c(c4cccnc42)CN2CCCC2C3)cn1 (centres unmarked) [Compound 35, 11-(2-(6-methylpyridin-3-yl)ethyl)-7,8,9,9a,10,11-hexahydro-5H-pyrido[3′,2′:4,5]pyrrolo[3,2-f]indolizine] | 31 | −3 | −2 | 10 | 15 | −3 |  |  |  | 
6 | Cc1cnc2c(c1)c1c(n2CCc2ccc(C)nc2)CC2CCCN2C1 (centres unmarked) [Compound 36, 3-methyl-11-(2-(6-methylpyridin-3-yl)ethyl)-7,8,9,9a,10,11-hexahydro-5H-pyrido[3′,2′:4,5]pyrrolo[3,2-f]indolizine] | 35 | −3 | 26 | 25 | 19 | 34 |  |  |  | 
7 | Cc1ccc(CCn2c3c(c4cccnc42)C2CCCN2CC3)cn1 (centres unmarked) [Compound 34, 7-(2-(6-methylpyridin-3-yl)ethyl)-2,3,5,6,7,1c-hexahydro-1H-pyrido[3′,2′:4,5]pyrrolo[2,3-g]indolizine] | 15 | 6 | −9 | 6 | 7 | 5 |  |  |  | 
8 | C/C(=C\n1c2c(c3cc(C)ccc31)C1CCCN1CC2)c1ccc(C)nc1 (centres unmarked) [Compound 32, (E)-10-methyl-7-(2-(6-methylpyridin-3-yl)prop-1-enyl)-2,3,5,6,7,11c-hexahydro-1H-indolizino[7,8-b]indole] | 50 | 3 | 55 | 24 | 26 | 25 |  |  |  | 
9 | O=C(Cn1c2c(c3cccnc31)C1CCCN1CC2)N1CCCCC1 (centres unmarked) [Compound 38, 1-(piperidin-1-yl)-2-(2,3,5,6-tetrahydro-1H-pyrido[3′,2′:4,5]pyrrolo[2,3-g]indolizin-7(11cH)-yl)ethanone] | 19 | 24 | −6 | 8 | 16 | −8 |  |  |  | 
